The target of this experiment is Mitogen-activated protein kinase kinase kinase 12 (Homo sapiens) (UniProt Q12852). As to the kind of experiment: Inhibition of DLK (unknown origin) using myelin basic protein as substrate preincubated for 15 mins measured after 30 mins in presence of [gamma-32P]ATP by scintillation counting.
Sequence of Mitogen-activated protein kinase kinase kinase 12 (Homo sapiens) (Q12852 whole entry, looked up): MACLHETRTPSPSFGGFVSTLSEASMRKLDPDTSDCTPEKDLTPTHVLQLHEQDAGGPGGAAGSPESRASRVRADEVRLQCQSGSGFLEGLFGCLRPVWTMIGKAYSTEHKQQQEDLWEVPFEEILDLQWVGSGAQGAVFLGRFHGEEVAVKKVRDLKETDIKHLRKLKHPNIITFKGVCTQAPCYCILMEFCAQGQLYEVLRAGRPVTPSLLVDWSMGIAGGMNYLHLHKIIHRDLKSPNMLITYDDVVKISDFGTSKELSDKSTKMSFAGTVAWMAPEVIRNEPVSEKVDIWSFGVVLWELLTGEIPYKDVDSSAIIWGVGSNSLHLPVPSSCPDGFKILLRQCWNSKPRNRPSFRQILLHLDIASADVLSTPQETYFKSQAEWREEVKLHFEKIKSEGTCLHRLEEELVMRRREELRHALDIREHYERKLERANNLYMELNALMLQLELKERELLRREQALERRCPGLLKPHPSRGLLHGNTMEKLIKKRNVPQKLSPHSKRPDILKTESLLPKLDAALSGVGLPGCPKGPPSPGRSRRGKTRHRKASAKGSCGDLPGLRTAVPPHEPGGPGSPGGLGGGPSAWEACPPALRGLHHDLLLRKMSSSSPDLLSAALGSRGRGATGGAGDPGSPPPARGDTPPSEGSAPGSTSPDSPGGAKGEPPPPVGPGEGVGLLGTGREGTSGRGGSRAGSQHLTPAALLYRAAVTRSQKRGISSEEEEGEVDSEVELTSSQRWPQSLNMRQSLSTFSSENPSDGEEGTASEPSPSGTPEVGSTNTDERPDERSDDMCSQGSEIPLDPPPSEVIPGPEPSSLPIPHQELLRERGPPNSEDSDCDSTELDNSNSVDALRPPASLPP

Regarding `CCSCc1ccc2c(c1)c1c3c(c4c5cc(CSCC)ccc5n5c4c1n2[C@H]1C[C@](O)(C(=O)OC)[C@]5(C)O1)CNC3=O` [CEP-1347], the IC50 is 114 nM.

The record behind these values is ChEMBL document CHEMBL4196101, “Dual Leucine Zipper Kinase Inhibitors for the Treatment of Neurodegeneration” (J Med Chem, 2018).
